The source of these data is patent publication US20180194762A1 (Pharmacyclics LLC, priority 2017, published 2018).

Read-outs that look alike come from different tables or passages of the source.

Format in all cases: biochemical
For one assay, the target named is T1, Btk (Homo sapiens, UniProt Q06187).
T1 construct: purified from insect cells as a full-length construct containing a N-terminal 6X-His tag; His6 (N); made in house; host or cells: insect cells (Method C)
As to the kind of experiment: Btk in vitro inhibitory activity (one of Method A TR-FRET, Method B electrophoretic mobility shift, Method C radiometric filter binding). The procedure, abridged:
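Method A: TR-FRET with 0.5 nM Btk at [ATP]=Km, EDTA-quenched, 665/615 nm ratio; Ki(app) converted to IC50. Method B: 1 nM full-length His6 human BTK, 1 μM FAM peptide, pH 7.5, mobility-shift product/sum ratio, 12-point 4-parameter fit. Method C: radiometric filter binding, 8 nM His-tagged BTK, 0.2 mg/mL poly-Glu-Tyr.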
A general note: A gel shift assay detects complexes by their altered migration in electrophoresis.

A further assay concerns the target T2, TEC (Homo sapiens, UniProt P42680).
T2 sequence (P42680 1-631): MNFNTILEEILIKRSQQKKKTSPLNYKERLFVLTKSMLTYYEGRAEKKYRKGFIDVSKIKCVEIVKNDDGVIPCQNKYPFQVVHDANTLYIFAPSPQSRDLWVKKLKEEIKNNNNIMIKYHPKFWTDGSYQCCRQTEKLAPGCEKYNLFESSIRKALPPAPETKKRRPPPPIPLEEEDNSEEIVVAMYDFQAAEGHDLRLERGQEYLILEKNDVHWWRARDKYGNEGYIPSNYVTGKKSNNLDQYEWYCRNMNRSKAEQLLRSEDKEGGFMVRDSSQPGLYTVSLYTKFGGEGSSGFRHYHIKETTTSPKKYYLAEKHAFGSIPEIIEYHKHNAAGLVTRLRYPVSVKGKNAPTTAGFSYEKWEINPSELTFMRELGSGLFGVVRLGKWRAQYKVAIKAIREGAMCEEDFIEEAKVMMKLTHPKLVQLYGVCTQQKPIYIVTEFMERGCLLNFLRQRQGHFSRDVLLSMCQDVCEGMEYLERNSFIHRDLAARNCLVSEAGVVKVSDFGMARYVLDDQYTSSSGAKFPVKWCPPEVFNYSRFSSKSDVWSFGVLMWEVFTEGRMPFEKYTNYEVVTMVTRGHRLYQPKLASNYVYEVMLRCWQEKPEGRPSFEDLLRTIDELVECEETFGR
As to the kind of experiment: Inhibition of a panel of kinases (in vitro HotSpot kinase assay, 33P-ATP, 1 μM ATP). As to conditions: for IC50: HotSpot kinase assay, 1 μM ATP; for TEC/Btk: ratio of TEC IC50 to Btk IC50 (selectivity). In a few lines: (§1)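 Degree of kinase inhibition is determined in vitro using isolated enzymes, a matched substrate and radiolabelled ATP (1 μM).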

Another assay has as its target T3, panel of kinases (Homo sapiens, UniProt P51813).
T3 sequence (P51813 1-675): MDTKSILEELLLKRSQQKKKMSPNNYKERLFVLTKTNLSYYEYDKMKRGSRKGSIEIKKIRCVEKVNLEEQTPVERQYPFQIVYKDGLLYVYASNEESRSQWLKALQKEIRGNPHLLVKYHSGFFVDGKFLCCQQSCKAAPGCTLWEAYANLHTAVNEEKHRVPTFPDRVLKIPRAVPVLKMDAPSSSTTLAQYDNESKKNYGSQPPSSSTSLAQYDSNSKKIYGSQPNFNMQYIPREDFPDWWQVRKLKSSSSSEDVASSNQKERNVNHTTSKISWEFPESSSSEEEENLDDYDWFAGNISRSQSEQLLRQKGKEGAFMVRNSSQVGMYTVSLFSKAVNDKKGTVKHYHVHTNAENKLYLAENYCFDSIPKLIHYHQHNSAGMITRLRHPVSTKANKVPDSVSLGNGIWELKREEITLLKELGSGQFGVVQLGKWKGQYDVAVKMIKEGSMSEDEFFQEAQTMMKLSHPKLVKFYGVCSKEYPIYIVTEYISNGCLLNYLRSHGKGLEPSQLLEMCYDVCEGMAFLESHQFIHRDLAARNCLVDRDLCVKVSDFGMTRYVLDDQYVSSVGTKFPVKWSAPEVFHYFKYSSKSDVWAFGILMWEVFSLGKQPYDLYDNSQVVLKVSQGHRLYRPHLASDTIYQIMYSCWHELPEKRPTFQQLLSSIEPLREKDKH
The assay is described as follows: Inhibition of a panel of kinases (in vitro HotSpot kinase assay, 33P-ATP, 1 μM ATP), other kinases. To be noted: BMX wild-type, read-out: BMX-WT IC50. The procedure, abridged: as §1

Where [1] appears, read: method is one of A, B or C, not stated which, read-out: IC50 values against Btk.
The mark [2] stands for this setting: wild-type Btk, read-out: Btk-WT IC50.

T1 sequence (Q06187 whole entry): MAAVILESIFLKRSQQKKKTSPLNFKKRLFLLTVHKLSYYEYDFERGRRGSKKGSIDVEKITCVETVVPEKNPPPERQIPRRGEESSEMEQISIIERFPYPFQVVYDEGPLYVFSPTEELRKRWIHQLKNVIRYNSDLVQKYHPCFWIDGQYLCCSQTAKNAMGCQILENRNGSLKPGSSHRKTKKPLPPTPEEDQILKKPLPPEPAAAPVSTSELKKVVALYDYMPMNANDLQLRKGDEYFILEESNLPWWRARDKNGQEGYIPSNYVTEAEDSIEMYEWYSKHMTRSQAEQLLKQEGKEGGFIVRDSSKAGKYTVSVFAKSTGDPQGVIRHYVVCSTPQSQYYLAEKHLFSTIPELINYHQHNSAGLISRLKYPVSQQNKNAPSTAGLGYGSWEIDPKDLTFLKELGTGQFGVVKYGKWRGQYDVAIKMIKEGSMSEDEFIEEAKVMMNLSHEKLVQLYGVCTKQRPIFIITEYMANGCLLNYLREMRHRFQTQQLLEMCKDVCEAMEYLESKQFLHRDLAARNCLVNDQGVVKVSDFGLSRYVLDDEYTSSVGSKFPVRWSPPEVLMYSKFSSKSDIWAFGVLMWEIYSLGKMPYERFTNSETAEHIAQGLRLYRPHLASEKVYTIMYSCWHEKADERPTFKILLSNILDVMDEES

Consider `C=CC(=O)N1C[C@H](Nc2n[nH]c3nccc(-c4ccc(CNC(=O)c5nc(C(C)(C)C)no5)c(F)c4)c23)CC[C@@H]1C` [Example 148, 3-tert-butyl-N-{[2-fluoro-4-(3-{[(3R,6S)-6-methyl-1-(prop-2-enoyl)piperidin-3-yl]amino}-1H-pyrazolo[3,4-b]pyridin-4-yl)phenyl]methyl}-1,2,4-oxadiazole-5-carboxamide], for which the IC50 (as a rule, the concentration needed to halve the response being measured) on Btk (setting [1]) was less than 10 nM; at Btk (setting [2]), 0.0924 nM; against TEC it was 28 nM; at panel of kinases, 12 nM. The TEC/Btk at TEC is on record as 305.

Regarding `C=CC(=O)N[C@@H]1CCN(c2n[nH]c3nccc(-c4ccc(CNC(=O)c5cc(C(C)(C)C)on5)c(F)c4)c23)C1` [Example 308, 5-tert-butyl-N-{[2-fluoro-4-(3-{(3R)-3-[(prop-2-enoyl)amino]pyrrolidin-1-yl}-1H-pyrazolo[3,4-b]pyridin-4-yl)phenyl]methyl}-1,2-oxazole-3-carboxamide], the IC50 at Btk (setting [2]) turned out to be 0.0594 nM; against TEC it was 47 nM; at panel of kinases it was 35.6 nM.

As to `C[C@@H](NC(=O)c1nc(C(C)(C)C)no1)c1ccc(-c2ccnc3[nH]nc(NC4CCCC4)c23)cc1` [Example 201, 3-tert-butyl-N-[(1R)-1-{4-[3-(cyclopentylamino)-1H-pyrazolo[3,4-b]pyridin-4-yl]phenyl}ethyl]-1,2,4-oxadiazole-5-carboxamide], the IC50 on Btk (setting [2]) is 10.2 nM; against TEC it was 8340 nM; on panel of kinases, 6700 nM. The TEC/Btk at TEC was 818.

Turning to `CC(C)(C)c1nc(C(=O)NCc2cc(F)cc(-c3ccnc4[nH]nc(N[C@@H]5CCNC5)c34)c2)no1` [Example 74, 5-tert-butyl-N-{[3-fluoro-5-(3-{[(3R)-pyrrolidin-3-yl]amino}-1H-pyrazolo[3,4-b]pyridin-4-yl)phenyl]methyl}-1,2,4-oxadiazole-3-carboxamide], the IC50 at Btk (setting [2]), at TEC and at panel of kinases was greater than 10000 nM throughout.

For `C[C@@H](NC(=O)c1noc(C(C)(C)C)n1)c1ccc(-c2ccnc3[nH]nc(N[C@@H]4CCNC4)c23)cc1` [Example 73, 5-tert-butyl-N-[(1R)-1-[4-(3-{[(3R)-pyrrolidin-3-yl]amino}-1H-pyrazolo[3,4-b]pyridin-4-yl)phenyl]ethyl]-1,2,4-oxadiazole-3-carboxamide], the IC50 was 37.9 nM on Btk (setting [2]), greater than 10000 nM on TEC and greater than 10000 nM on panel of kinases. At TEC, the TEC/Btk is greater than 100.

With `C[C@H]1CC[C@@H](Nc2n[nH]c3nccc(-c4ccc(CNC(=O)c5noc(C(C)(C)C)n5)c(F)c4)c23)CN1S(=O)(=O)C1CC1` [Example 128, 5-tert-butyl-N-{[4-(3-{[(3R,6S)-1-(cylcopropanesulfonyl)-6-methylpiperidin-3-yl]amino}-1H-pyrazolo[3,4-b]pyridin-4-yl)-2-fluorophenyl]methyl}-1,2,4-oxadiazole-3-carboxamide], the IC50 on Btk (setting [1]) was less than 10 nM; on Btk (setting [2]), 1.29 nM; on TEC, 500 nM; at panel of kinases, 1120 nM. The TEC/Btk on TEC turned out to be 388.

On to `CC(C)(C)c1nc(C(=O)NCc2ccc(-c3ccnc4[nH]nc(N[C@@H]5CC[C@H](N)C5)c34)cc2F)no1` [Example 315, N-{[4-(3-{[(1R,3S)-3-aminocyclopentyl]amino}-1H-pyrazolo[3,4-b]pyridin-4-yl)-2-fluorophenyl]methyl}-5-tert-butyl-1,2,4-oxadiazole-3-carboxamide], for which the IC50 stood at 3.79 nM at Btk (setting [2]), 2250 nM against TEC and 2580 nM at panel of kinases.

With `C=CC(=O)N1CC[C@@H](Nc2n[nH]c3nccc(-c4ccnc(N5CCn6c(cc7c6CC(C)(C)C7)C5=O)c4CO)c23)C1` [Example 298, 2-[3-(hydroxymethyl)-4-(3-{[(3R)-1-(prop-2-enoyl)pyrrolidin-3-yl]amino}-1H-pyrazolo[3,4-b]pyridin-4-yl)pyridin-2-yl]-7,7-dimethyl-3,4,7,8-tetrahydro-2H-cyclopenta[4,5]pyrrolo[1,2-a]pyrazin-1(6H)-one], the IC50 at Btk (setting [2]) stood at 1.51 nM; against TEC, 3280 nM; at panel of kinases, 8030 nM.

Consider `C[C@H]1CC[C@@H](Nc2n[nH]c3nccc(-c4ccc(CNC(=O)c5noc(C(C)(C)C)n5)c(F)c4)c23)CN1C(=O)C1CC1` [Example 127, 5-tert-butyl-N-{[4-(3-{[(3R,6S)-1-cyclopropanecarbonyl-6-methylpiperidin-3-yl]amino}-1H-pyrazolo[3,4-b]pyridin-4-yl)-2-fluorophenyl]methyl}-1,2,4-oxadiazole-3-carboxamide], for which the IC50 was less than 10 nM on Btk (setting [1]), 2.05 nM on Btk (setting [2]), 698 nM on TEC and 1550 nM at panel of kinases. The TEC/Btk at TEC is recorded as 340.

In the case of `C=CC(=O)N[C@H]1CC[C@@H](Nc2n[nH]c3nccc(-c4ccc(CNC(=O)c5noc(C(C)(C)C)n5)c(F)c4)c23)C1` [Example 320, 5-tert-butyl-N-({2-fluoro-4-[3-({(1R,3S)-3-[(prop-2-enoyl)amino]cyclopentyl}amino)-1H-pyrazolo[3,4-b]pyridin-4-yl]phenyl}methyl)-1,2,4-oxadiazole-3-carboxamide], the IC50 on Btk (setting [2]) stood at 0.0637 nM; at TEC, 58.5 nM; at panel of kinases, 86.7 nM.

Take `CC(C)(C)c1nnc(C(=O)NCc2ccc(-c3ccnc4[nH]nc(N[C@@H]5CCNC5)c34)cc2F)o1` [Example 77, 5-tert-butyl-N-{[2-fluoro-4-(3-{[(3R)-pyrrolidin-3-yl]amino}-1H-pyrazolo[3,4-b]pyridin-4-yl)phenyl]methyl}-1,3,4-oxadiazole-2-carboxamide]: the results for the IC50 at Btk (setting [2]), against TEC and at panel of kinases were 159 nM, greater than 10000 nM and greater than 10000 nM, respectively. Besides, the TEC/Btk on TEC is greater than 100.

Consider `CC(C)N1CC[C@H](Nc2n[nH]c3nccc(-c4ccc(CNC(=O)c5nc(C(C)(C)C)no5)c(F)c4)c23)C1` [Example 163, 3-tert-butyl-N-{[2-fluoro-4-(3-{[(3S)-1-(propan-2-yl)pyrrolidin-3-yl]amino}-1H-pyrazolo[3,4-b]pyridin-4-yl)phenyl]methyl}-1,2,4-oxadiazole-5-carboxamide], for which the IC50 on Btk (setting [1]) is less than 10 nM; at Btk (setting [2]), 4.78 nM; on TEC, 9450 nM; at panel of kinases it was greater than 10000 nM. The TEC/Btk on TEC amounted to 1977.

`C=CC(=O)N1CC[C@@H](Nc2n[nH]c3nccc(-c4ccc(CNC(=O)c5noc(CC)n5)c(F)c4)c23)C1` [Example 84, 5-ethyl-N-{[2-fluoro-4-(3-{[(3R)-1-(prop-2-enoyl)pyrrolidin-3-yl]amino}-1H-pyrazolo[3,4-b]pyridin-4-yl)phenyl]methyl}-1,2,4-oxadiazole-3-carboxamide]: the IC50 at Btk (setting [1]) is less than 10 nM; on Btk (setting [2]), 7.83 nM; against TEC, 361 nM; at panel of kinases it was 87 nM. Moreover, the TEC/Btk on TEC is 46.

`C=CC(=O)N1CC[C@@H](Nc2n[nH]c3nccc(-c4ccc([C@@H](C)NC(=O)c5noc(C(C)(C)C)n5)c(F)c4)c23)C1` [Example 372, 5-tert-butyl-N-{(1R)-1-[2-fluoro-4-(3-{[(3R)-1-(prop-2-enoyl)pyrrolidin-3-yl]amino}-1H-pyrazolo[3,4-b]pyridin-4-yl)phenyl]ethyl}-1,2,4-oxadiazole-3-carboxamide]: the values for the half-maximal inhibitory concentration (IC50) at Btk (setting [2]), at TEC and at panel of kinases were 0.0597 nM, 30.5 nM and 36 nM, respectively.
